SMILES strings stand for the structures.

What all share (assay type): cell-based, human
For one assay, the system named is hEAAT2 mRNA. Nature of the assay: Northern blot of hEAAT2 mRNA in PHFA treated with modulators. The note with it: 7-day treatment, EGF 30 ng/ml, TGF-α 30 ng/ml, dbcAMP 200 μM, bromo-cAMP 100 μM, TNF-α 200 U/ml. As for the experimental part:
FIG. 4A-D. Effect of modulators of hEAAT2 activity on hEAAT2 expression and hEAAT2 promoter activity in PHFA. A. A Northern analysis of hEAAT2 and GAPDH mRNA expression following treatment with EGF (30 ng/ml), TGF-α (30 ng/ml), dbcAMP (200 μM, bromo-cAMP (100 μM) or TNF-α (200 U/ml) for 7 days. B. Nuclear run-on assays determining the relative rates of hEAAT2 and GAPDH transcription as a function of 7-day treatment with the same concentrations of the indicated agents. C. A time course of mRNA expression of hEAAT2 and GAPDH following treatment with EGF, bromo-cAMP or TNF-α (same concentrations as in A.). D. Fold luciferase activity in PHFA transfected with flhEAAT2Prom-luc or various deletion mutants of hEAAT2 and non-transfected controls treated with the indicated compounds for four days.
(§1) Northern and Western Blotting Assays. Total cellular RNA was isolated by the guanidinium/phenol extraction method and Northern blotting was performed as described (Huang et al., 2001, Oncogene 20(48):7051-7063; Su et al., 2000, Oncogene 19(30):3411-3421; Su et al., 2001, Nucleic Acids Res 29(8):1661-1671). Western blotting assays were performed as described (Su et al., 1998, Proc Natl Acad Sci USA 95(24):14400-14405; Su et al., 2002, Oncogene 21(22):3592-602).
Positive and Negative Regulation of hEAAT2 Transcription, Promoter Activity and mRNA Levels in PHFA. Several enhancers of GLT-1 expression in rat astrocytes have been identified, including epidermal growth factor (EGF), transforming growth factor-α (TGF-α) and dibutyryl cyclic AMP (dbcAMP) (Swanson et al., 1997, J Neurosci 17(3):932-940; Zelenaia et al., 2000, Mol Pharmacol 57(4):667-678). Based on these considerations, experiments were performed to determine if these agents similarly modify human hEAAT2 expression in PHFA. Consistent with previous observations in rat astrocytes, 7-day treatment with EGF, TGF-α, and two analogs of cAMP, dbcAMP and bromo-cAMP, stimulated hEAAT2 mRNA expression in PHFA, whereas TNF-α decreased expression (FIG. 4B). […] In contrast, TNF-α decreased expression by 48 h (FIG. 4C).

A further assay deals with hEAAT2 promoter. Nature of the assay: hEAAT2 promoter luciferase assay of agents in PHFA-Im (FIG. 11). The conditions noted are these: 10 μM. Here is the method:
(§2) FIG. 11. Effect of various agents on hEAAT2 promoter activity in immortalized primary human fetal astrocytes (PHFA-Im). A: ceftriaxone; B: amoxicillin; C: chloramphenicol; D: thiamphenicol; E: vancomycin; F: glycine; G: glutamate; H: DMSO; I: dibutyryl cAMP. PHFA-Im is a human telomerase-immortalized clone of primary human fetal astrocytes. PHFA-Im cells were seeded at 5×10^4 cells/35-mm plate. Twenty-four h later cells were untreated (CON) or received the indicated compound at a final concentration of 10 μM. Forty-eight h later the cells were transfected with a FL pGL3/EAAT2 luciferase reporter construct (5 μg) plus a pSVβGalactosidase construct (1 μg) using the calcium phosphate precipitation method (Su et al. 2003, Proc. Natl. Acad. Sci. USA 100:1955-1960). After an additional 48 h, cell lysates were prepared and luciferase activity was determined using the Luciferase Assay System Kit (Promega, E1501) and luminescence determined using a luminometer (Turner Designs, TD20/20) (Su et al. 2003, Proc. Natl. Acad. Sci. USA 100:1955-1960). Data presented are the average of 3 independent plates±S.D. Qualitatively similar results were obtained in 2 additional experiments.
as §2, with “The effects” for “FIG. 11. Effect”, “these same” for “various”, “also were examined” for “on hEAAT2 promoter activity”, “two other cell lines to confirm the generality of the findings. […] PHFA-Im is a cell line developed from a clonal isolate of a” for “immortalized”, “astrocyte immortalized by transformation with the reverse transcriptase subunit of” for “astrocytes (PHFA-Im). A: ceftriaxone; B: amoxicillin; C: chloramphenicol; D: thiamphenicol; E: vancomycin; F: glycine; G: glutamate; H: DMSO; I: dibutyryl cAMP. PHFA-Im is a”, “telomerase.” for “telomerase-immortalized clone of primary human fetal astrocytes.”

A further assay concerns hEAAT2 protein. Nature of the assay: Western blot of EAAT2 protein in PHFA. As for the experimental part:
FIG. 5A-E. Effect of pharmacological inhibitors on hEAAT2 promoter activity, and mRNA and protein expression in PHFA following various treatment protocols. A. hEAAT2 promoter activity in PHFA, either untreated (−) or treated with EGF (30 ng/ml), in the absence (−) or presence (+) of KT5720 (5 μM), AG1478 (1 μM), PDTC (100 μM), wortmannin (WRT) (100 nM) or PD98049 (PD) (50 μM). B. hEAAT2 promoter activity in PHFA, either untreated (−) or treated with bromo-cAMP (250 μM) in the absence (−) or presence (+) of KT5720 (5 μM), AG1478 (1 μM), PDTC (100 μM), wortmannin (WRT) (100 nM) or PD98049 (PD) (50 μM). C. hEAAT2 promoter activity in PHFA, either untreated (−) or treated with TNF-α (200 U/ml), in the absence (−) or presence (+) of KT5720 (5 μM), AG1478 (1 μM), PDTC (100 μM), wortmannin (WRT) (100 nM) or PD98049 (PD) (50 μM). D. The effect of the various treatment protocols on hEAAT2 and GAPDH mRNA levels. Upper panel presents relative hEAAT2 RNA expression versus GAPDH expression relative to control untreated or treated samples based on scanning of autoradiograms. Lower panel, actual Northern blots. E. The effect of the various treatment protocols on EAAT2 and ACTIN protein levels. Upper panel presents relative EAAT2 protein expression versus ACTIN expression relative to control untreated or treated samples based on scanning of autoradiograms. Individual experiments were performed 3 times using triplicate samples and S.D. from the mean is presented.
as §1
In general terms: Immunoblotting shows a protein as a band on a membrane.

In the case of `CCCC(=O)Nc1ncnc2c1ncn2[C@@H]1O[C@@H]2COP(=O)(O)O[C@H]2[C@H]1OC(=O)CCC` [dbcAMP, dibutyryl cyclic AMP], the “hEAAT2 mRNA expression” value in the assay with hEAAT2 mRNA is reported as “stimulated”. For the same compound, the hEAAT2 promoter activity result in the assay with hEAAT2 promoter is listed as “potent stimulators”. Further, in the assay on hEAAT2 protein, the hEAAT2 protein levels result was “upregulated”.

(Values after US20060127980A1, “Human excitatory amino acid transporter-2 gene promoter and uses thereof” (priority 2003, published 2006).)
